From PMC10165273, “Itch receptor MRGPRX4 interacts with the receptor activity–modifying proteins” (The Journal of Biological Chemistry, 2023)
Where two headings read alike, the source gives them in different places.

Target: T1, MRGPRX4 (Homo sapiens, UniProt Q96LA9)
T1 construct: expressed in transfected cells; host or cells: HEK293T
Assay: IP1 accumulation HTRF assay, MRGPRX4
Assay type: cell-based
Parameters: key to IP1 Basal / IP1 accumulation with YM (Figure 1c) / response to agonist, MRGPRX4 / IP1 accumulation: % IP1: unstimulated mock-transfected = 0%, fully stimulated MRGPRX4 = 100%
Conditions: for Emax: HEK-293T

T1 sequence (Q96LA9 whole entry): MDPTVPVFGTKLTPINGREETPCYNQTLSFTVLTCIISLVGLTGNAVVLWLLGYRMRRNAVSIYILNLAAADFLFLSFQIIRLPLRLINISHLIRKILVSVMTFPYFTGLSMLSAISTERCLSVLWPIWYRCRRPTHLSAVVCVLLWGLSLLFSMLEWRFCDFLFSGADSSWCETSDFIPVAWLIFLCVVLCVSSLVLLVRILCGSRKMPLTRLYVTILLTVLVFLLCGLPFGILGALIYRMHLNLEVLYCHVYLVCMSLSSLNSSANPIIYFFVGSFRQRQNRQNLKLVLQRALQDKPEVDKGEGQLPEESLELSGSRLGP

C[C@H](CCC(=O)NCCS(=O)(=O)O)[C@H]1CC[C@H]2[C@@H]3CC[C@@H]4C[C@H](O)CC[C@]4(C)[C@H]3C[C@H](O)[C@]12C [TDCA, Taurodeoxycholic acid]
activation at 100 µM (2 h, log [agonist] (M) -4, MRGX4-transfected, individual replicates, read-out: IP1 accumulation, dose-response (Figure 1a)): 48.8% | activation at 33.333 µM (2 h, log [agonist] (M) -4.47712, MRGX4-transfected, individual replicates, read-out: IP1 accumulation, dose-response (Figure 1a)): 32.5% | activation at 11.111 µM (2 h, log [agonist] (M) -4.95424, MRGX4-transfected, individual replicates, read-out: IP1 accumulation, dose-response (Figure 1a)): 22.8% | activation at 3.7037 µM (2 h, log [agonist] (M) -5.43136, MRGX4-transfected, individual replicates, read-out: IP1 accumulation, dose-response (Figure 1a)): 12.8% | activation at 1.2346 µM (2 h, log [agonist] (M) -5.90849, MRGX4-transfected, individual replicates, read-out: IP1 accumulation, dose-response (Figure 1a)): 12.2% | activation at 0.4115 µM (2 h, log [agonist] (M) -6.38561, MRGX4-transfected, individual replicates, read-out: IP1 accumulation, dose-response (Figure 1a)): 12.6% | activation at 0.13717 µM (2 h, log [agonist] (M) -6.86273, MRGX4-transfected, individual replicates, read-out: IP1 accumulation, dose-response (Figure 1a)): 10.1% | response to agonist, MRGPRX4 (Figure 4c-f, agonist 100µM, MRGPRX4 alone (reference = 100)): 100 | Emax (MRGPRX4 (Fig. 1A), HEK293T, normalized to 100 μM nateglinide, read-out: IP1 Emax): 84.2% | Emax (MRGPRX4 (Fig. 1A), HEK293T, normalized to 100 μM nateglinide, read-out: IP1 span): 69.6% | IP1 Basal (MRGPRX4 (Fig. 1A), HEK293T, normalized to 100 μM nateglinide): 14.54 | EC50 (MRGPRX4 (Fig. 1A), HEK293T, normalized to 100 μM nateglinide, read-out: IP1 EC50): 53.2 µM
